Series [1] has as its target T1, Acetylcholinesterase (h), human recombinant (HEK-293 cells) (Homo sapiens, UniProt P22303).
T1 construct: host or cells: HEK-293 cells
As to the kind of experiment: In vitro human acetylcholine esterase inhibition. The format is biochemical. The conditions noted are these: in contrast to galantamine.

Series [2] concerns rabbit stomach circular smooth muscle. As to the kind of experiment: Ex vivo rabbit stomach circular smooth muscle, electrical field stimulation. The conditions noted are these: rabbit stomach strips, EFS, 100 nM to 100 μM.
For series [3], the system named is ferret. As to the kind of experiment: Emetic activity (retching and vomiting) in the ferret. The settings on record: for Time (min) to onset of: Retching / Time (min) to onset of: Vomiting / Total number of individual incidences of: Retching / Total number of individual incidences of: Vomiting: 2 hr. observation; for animals dosed that retched / animals dosed that vomited: 20 mg (free base)/kg or similar molar dose, oral.

Series [4] relates to Sprague Dawley rat. As to the kind of experiment: PICA behavior (kaolin consumption) as surrogate for emesis in the rat. The class given is in vivo. The settings on record: for rat kaolin consumption (g) over 24 h post-dose: single subcutaneous dose 3.5 mg base/kg. The protocol: This is a well established model for this purpose in the rat (Takeda N et al (1993) 45 817-21).
Once determined, a comparison was made of the effects of these doses on kaolin consumption over a 0-96 hour period in 24 h increments.
In detail groups of 10 male Sprague Dawley rats were habituated to kaolin for 3 days, then singly housed in grid-bottomed cages and habituated for a further 2 days prior to dosing. On the day of drug administration, the animals were food-deprived for 1 h prior to dosing. […] Access to a weighed quantity of food and kaolin was then restored. Food and kaolin was weighed 24, 48, 72 and 96 h after dosing.

The subject of series [5] is human stomach circular smooth muscle. As to the kind of experiment: Ex vivo human stomach circular smooth muscle, electrical field stimulation. The conditions noted are these: human stomach strips, EFS, 100 nM to 100 μM.
Series [6] has as its system rat. As to the kind of experiment: Comparative acute toxicity (behavior) of sc and po galantamine in the rat. The settings on record: individual rats. The format is in vivo.
Where [7] appears, read: 40 mg/kg as base p.o., individual animals.
The mark [8] stands for this setting: 20 mg/kg p.o., individual animals, listed as Galantamine HBr, hydrobromide, 20 mg/kg.
[9] abbreviates: 20 mg/kg p.o., individual animals, listed as Galantamine valine ester tartrate, 20 mg/kg.

Values joined by “and” are separate entries in the source; they are usually repeats but may differ in a detail not shown here. Identical values can stand only once. “Also recorded” adds a separate entry of the source. Counter-ions that a name gives are not always drawn.

T1 sequence (P22303 32-614): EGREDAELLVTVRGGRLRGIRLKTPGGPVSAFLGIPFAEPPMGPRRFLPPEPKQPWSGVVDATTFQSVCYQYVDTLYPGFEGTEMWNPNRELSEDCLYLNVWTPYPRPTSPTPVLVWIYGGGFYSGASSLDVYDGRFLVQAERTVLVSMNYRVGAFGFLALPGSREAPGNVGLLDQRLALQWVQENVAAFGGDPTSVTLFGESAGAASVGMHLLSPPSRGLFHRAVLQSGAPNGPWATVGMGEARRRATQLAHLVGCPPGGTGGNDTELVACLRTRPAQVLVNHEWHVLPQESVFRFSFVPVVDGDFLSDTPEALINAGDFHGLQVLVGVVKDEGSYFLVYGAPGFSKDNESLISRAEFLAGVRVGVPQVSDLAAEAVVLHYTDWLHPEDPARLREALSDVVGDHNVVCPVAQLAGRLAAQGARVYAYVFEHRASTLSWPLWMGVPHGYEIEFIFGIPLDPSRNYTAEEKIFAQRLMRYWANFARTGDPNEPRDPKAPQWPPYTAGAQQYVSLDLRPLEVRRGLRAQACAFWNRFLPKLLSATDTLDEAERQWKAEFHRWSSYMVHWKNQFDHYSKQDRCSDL

With `COc1ccc2c3c1O[C@H]1C[C@@H](OC(=O)CCCC(=O)Nc4ccc(C(=O)O)cc4)C=C[C@@]31CCN(C)C2` [Galantamine [glutaryl-PABA] ester], in series [1], the “inhibitory actions toward human acetylcholine esterase (in words)” value is recorded as “significantly less inhibitory actions”.
Regarding `COc1ccc2c3c1O[C@H]1C[C@@H](OC(=O)CCC(=O)N[C@H](C(=O)O)C(C)C)C=C[C@@]31CCN(C)C2` [Galantamine succinyl valine ester], in series [1], the “inhibitory actions toward human acetylcholine esterase (in words)” value was “significantly less inhibitory actions”. Moreover, the “stimulation of smooth muscle contractions (change in force production)” value in series [2] and in series [5] was “complete absence of any such effect” in each case. Further, the “Time (min) to onset of: Retching” value is >120 min in series [3] (40 mg/kg as base p.o., Mean) and >120 min in series [3] (setting [7]). Moreover, the “Time (min) to onset of: Vomiting” value in series [3] (40 mg/kg as base p.o., Mean) is on record as >120 min; in series [3] (setting [7]), >120 min. Further, the “Total number of individual incidences of: Retching” value (“Total number … Retching” for short) in series [3] (40 mg/kg as base p.o., Mean) is reported as 0; in series [3] (setting [7]), 0. The “Total number of individual incidences of: Vomiting” value (from here on “Total number … Vomiting”) was 0 in series [3] (40 mg/kg as base p.o., Mean) and 0 in series [3] (setting [7]). Moreover, the “retching or vomiting observed (in words)” value in series [3] (oral 40 mg galantamine (free base equivs)/kg) was “no retching or vomiting at all”. For the same compound, the “Cumulative mean ± SD kaolin consumption” value in series [4] (11.75 mg base/kg po (galantamine free base content), 24 h) came to 0.14 ± 0.20 g; in series [4] (11.75 mg base/kg po (galantamine free base content), 48 h), 0.29 ± 0.24 g; in series [4] (11.75 mg base/kg po (galantamine free base content), 72 h) it was 0.48 ± 0.27 g; in series [4] (11.75 mg base/kg po (galantamine free base content), 96 h), 0.57 ± 0.40 g; in series [4] (23.5 mg base/kg po (galantamine free base content), 24 h), 0.31 ± 0.53 g; in series [4] (23.5 mg base/kg po (galantamine free base content), 48 h), 0.61 ± 0.69 g. In addition, the “Cumulative mean ± SD kaolin consumption” value is 0.95 ± 0.96 g in series [4] (23.5 mg base/kg po (galantamine free base content), 72 h); 1.25 ± 1.31 g in series [4] (23.5 mg base/kg po (galantamine free base content), 96 h); 0.15 ± 0.18 g in series [4] (47 mg base/kg po (galantamine free base content), 24 h); 0.40 ± 0.18 g in series [4] (47 mg base/kg po (galantamine free base content), 48 h); 0.63 ± 0.28 g in series [4] (47 mg base/kg po (galantamine free base content), 72 h); 0.91 ± 0.45 g in series [4] (47 mg base/kg po (galantamine free base content), 96 h). Further, the “Cumulative mean ± SD kaolin consumption” value in series [4] (47 mg base/kg po (galantamine free base content), 96 h, listed as GSVE) was found to be 0.91 ± 0.45 g.
For `COc1ccc2c3c1O[C@H]1C[C@@H](O)C=C[C@@]31CCN(C)C2` [Galantamine, (4aS,6R,8aS)-4a,5,9,10,11,12-hexahydro-3-methoxy-11-methyl-6H-benzofuro[3a,3,2ef][2]benzazepin-6-ol hydrobromide], the rat behavior result was “Rat 1: purposeless chewing, mouth; also recorded: Rat 3: purposeless chewing, mouth” in series [6] (3.5 mg/kg sc, 2 min post dose, hydrobromide); “Rat 3: As per 2 min; also recorded: Rat 1: purposeless chewing, mouth” in series [6] (3.5 mg/kg sc, 5 min post-dose, hydrobromide); “Rat 1: Tremors, flattened rostral body; also recorded: Rat 3: purposeless chewing, mouth” in series [6] (3.5 mg/kg sc, 10 min post-dose, hydrobromide); “Rat 1: Quiescent, flattened body posture,; also recorded: Rat 3: Some ambulation restored” in series [6] (3.5 mg/kg sc, 20 min post-dose, hydrobromide); “Rat 1: Quiescent, flattened body posture,; also recorded: Rat 3: Some ambulation restored” in series [6] (3.5 mg/kg sc, 30 min post-dose, hydrobromide); “Rat 1: food consumption and more” in series [6] (3.5 mg/kg sc, 45 min post-dose). Further, the rat behavior result in series [6] (3.5 mg/kg sc, 1 h, hydrobromide) was “Rat 1: Normal; also recorded: Rat 3: Normal”; in series [6] (40 mg/kg po, 10 min post-dose, hydrobromide), “Rat 6: Quiescent, purposeless; also recorded: Rat 7: Quiescent, purposeless chewing,”; in series [6] (40 mg/kg po, 20 min post-dose, hydrobromide), “Ratc 6 as per 10 min + arching; also recorded: Rat 7: grooming + purposeless”; in series [6] (40 mg/kg po, 30 min post-dose) it was “Rat 6: quiescent, purposeless chewing,”; in series [6] (40 mg/kg po, 45 min post-dose, hydrobromide), “Rat 6: flattened body posture, chewing,; also recorded: Rat 7: grooming, sawdust consumption”; in series [6] (40 mg/kg po, 1 h, hydrobromide), “Rat 6: flattened body posture, tremor; also recorded: Rat 7: Grooming, sawdust”. For the same compound, the rat behavior entry in series [6] (40 mg/kg po, 1.5 h, hydrobromide) is “Rat 7: quiet, falttened posture”; in series [6] (40 mg/kg po, 2 h, hydrobromide) it was “Rat 6: much improved; also recorded: Rat 7: much improved”; in series [6] (40 mg/kg po, 3 h, hydrobromide), “Rat 6: normal; also recorded: Rat 7: normal”. Besides, the “stimulation of smooth muscle contractions (change in force production)” value in series [2] and in series [5] was “evidence of a dose response” each time. Moreover, the “animals dosed that retched” value in series [3] was 55%. Further, the “animals dosed that vomited” value in series [3] is recorded as 40%. Moreover, the “Time (min) to onset of: Retching” value in series [3] (setting [8]) is 6 min (2×) and 33 min and 3 min and 5 min (3×) and >120 min (8×) and 41 min and 11 min and 10 min and 7 min (2×). Moreover, the “Time (min) to onset of: Vomiting” value in series [3] (setting [8]) was 41 min and 33 min and 75 min and 5 min (2×) and >120 min (11×) and 37 min and 10 min and 13 min and 6 min. Besides, the “Total number … Retching” value in series [3] (setting [8]) is 22 and 21 and 29 and 18 and 0 (9×) and 31 and 3 (2×) and 6 and 2 and 5 and 13. For the same compound, the “Total number … Vomiting” value in series [3] (setting [8]) is 1 (6×) and 4 (2×) and 0 (11×) and 2. Further, the “rat kaolin consumption (g) over 24 h post-dose” value in series [4] (Mean) was 0.25 g; in series [4] (individual rats, hydrobromide), 0.67 g and 0.36 g and 0.88 g and 0.08 g and 0.00 g (3×) and 0.21 g and 0.05 g.
Take `COc1ccc2c3c1O[C@H]1C[C@@H](OC(=O)[C@@H](N)C(C)C)C=C[C@@]31CCN(C)C2` [Galantamine-(S)-valine ester, galantamine-(S)-valine ester tartrate]: in series [3], the “animals dosed that retched” value is listed as 45% and the “animals dosed that vomited” value is given as 18%. For the same compound, in series [3] (20 mg/kg p.o., Mean), the “Total number … Retching” value amounted to 3.9. Besides, in series [3] (setting [9]), the “Time (min) to onset of: Retching” value was >120 min (6×) and 35 min and 11 min and 9 min and 6 min; the “Time (min) to onset of: Vomiting” value is >120 min (9×) and 44 min and 9 min; the “Total number … Retching” value is 0 (6×) and 22 and 2 (2×) and 3 and 14; the “Total number … Vomiting” value is 0 (9×) and 1 and 3.

These data come from US20120184532A1 (priority 2009, published 2012).
